Results published in patent US9597311B2, “Suppression and prevention of tumors” (priority 2005, dated 2017).

Assay: Additional benefits of taking betaine in people
Format: in vivo
From the text: While the main benefit of a person or pet taking vitamin C and betaine in combination is the prevention/suppression of tumors, as mentioned before, additional benefits can be obtained depending upon the levels taken. Betaine is known to improve cardiovascular health, and can benefit people with fatty deposits in the liver. […] After only a few weeks of taking the betaine, cholesterol levels are reduced and the ability to lose weight is improved.

With `C[N+](C)(C)CC(=O)[O-]` [betaine, trimethylglycine] the “tendency to be light headed when getting up after prolonged squatting or kneeling” value (after a few doses at about one and a half to about three grams per day, especially older people) was “considerably lessened” and the cholesterol levels (after only a few weeks of taking the betaine) was “reduced”.
